Experimental data published in patent US20110237679A1, “NOVEL ANTIVIRAL COMPOUNDS, COMPOSITIONS, AND METHODS OF USE” (CYTOKINE PHARMASCIENCES, INC., priority 2008, published 2011).

Assay: in vitro activity comparison (FIG. 1)
Assay type: cell-based
Settings: relative to ITI-367

Compound: COc1ccccc1C(=Nc1cccc(C(F)(F)F)c1)NO [CPSI-00220, N-hydroxy-2-methoxy-N′-(3-trifluoromethyl-phenyl)-benzamidine]
- effectiveness in vitro compared with ITI-367: equally (and possibly more) as effective as ITI-367
